Source: patent US12031160B2, “Method for the production of glufosinate-ammonium” (ZHEJIANG UNIVERSITY OF TECHNOLOGY, priority 2018, dated 2024)

Legend:
[1] = molecular target: Pseudomonas moorei glufosinate-ammonium dehydrogenase E3 (SEQ ID NO: 6) variant PPTGDH-L107R-F188P-G239K-F357G, SEQ ID NO: 9 (Pseudomonas moorei, UniProt A0A1H1HZ48, F188P/F357G/G239K/L107R); test: Kinetic parameters of purified mutant PPTGDH-L107R-F188P-G239K-F357G
Procedure: (§1) 1. […] The mutant proteins were purified by Ni-NTA column(1.6×10 cm, Bio-Rad, the USA), and the specific operations were carried out as follows: (1)equilibrate a Ni-NTA column with 5 column volumes of a binding buffer(pH 8.0, 50 mM sodium phosphate buffer containing 0.3 M NaCl) until the baseline is steady; (2)load the sample with a flow rate of 1 mL/min with the amount of the loading sample of 25-40 mg/mL, thereby attaching the target protein to the Ni-NTA column; (3)wash the column with 6 column volumes of buffer A (pH 8.0, 50 mM sodium phosphate buffer containing 0.3 M NaCl and 30 mM imidazole) at a flow rate of 1 mL/min until the baseline is steady; (4)wash the column with buffer B (pH 8.0, 50 mM sodium phosphate buffer containing 0.3 M NaCl and 500 mM imidazole) at a flow rate of 1 mL/min, collect the target protein and dialyze overnight in a pH 7.5, 20 mM phosphate buffer, thereby obtaining the pure glufosinate-ammonium dehydrogenase; and (5)wash the Ni-NTA column with 5 column volumes of a binding buffer(pH 8.0, 50 mM sodium phosphate buffer containing 0.3 M NaCl) until the baseline is steady, and store the Ni-NTA column in 5 column volumes of ultrapure water containing 20% ethanol.

[2] = molecular target: Pseudomonas moorei glufosinate-ammonium dehydrogenase E3 (PPTGDH, PPTGDHE3, WP_090325311.1), wild type, SEQ ID NO: 6 (Pseudomonas moorei, UniProt A0A1H1HZ48); test: Kinetic parameters of purified original glufosinate-ammonium dehydrogenase PPTGDH; details: pH 7.4, 35° C.
Procedure: as §1

| Structure (SMILES) | catalytic efficiency for the coenzyme NADPH, times higher than that of the original enzyme ([1]; mutant vs original enzyme) [times] | kcat/Km^A (NADPH) ([1]; pH 7.4, 35° C.) [M⁻¹ s⁻¹] | kcat/Km^B (PPO) [2] [M⁻¹ s⁻¹] | catalytic efficiency kcat/Km^B (PPO), times higher than that of the original enzyme ([1]; mutant vs original enzyme) [times] | kcat/Km^B (PPO) ([1]; pH 7.4, 35° C.) [M⁻¹ s⁻¹] |
| --- | --- | --- | --- | --- | --- |
| NC(=O)C1=CN([C@@H]2O[C@H](COP(=O)(O)OP(=O)(O)OC[C@H]3O[C@@H](n4cnc5c(N)ncnc54)[C@H](OP(=O)(O)O)[C@@H]3O)[C@@H](O)[C@H]2O)C=CC1 [NADPH] | 34.61 | 1.3703e+07 |  |  |  |
| CP(=O)(O)CCC(=O)C(=O)O [PPO, 2-carbonyl-4-[(hydroxy)(methyl)phosphinoyl]-butyric acid] |  |  | 15220 | 22.19 | 337730 |
